The values below are quoted from earlier work in US20210205254A1, “OMEGA-3 PENTAENOIC ACID COMPOSITIONS AND METHODS OF USE” (Matinas BioPharma, Inc., priority 2012, published 2021).

For the data set the following is noted: in vivo.

In the case of `CC[C@H](C)C(=O)O[C@H]1C[C@@H](C)C=C2C=C[C@H](C)[C@H](CC[C@@H]3C[C@@H](O)CC(=O)O3)[C@H]21` [lovastatin], the “absorbed (rate)” value was “about 30%”.
Turning to `CC(C)n1c(/C=C/C(O)CC(O)CC(=O)O)c(-c2ccc(F)cc2)c2ccccc21` (centres unmarked) [fluvastatin], the bioavailable entry was “approximately 24%”.
